Measurements from the supplement of paper PMC8882468.

Experiments:
Test in all cases: CTG-3D luminescence at 96 h relative to day-0 seeding control (ratio to day 0); higher = more growth / less cytotoxicity; PDxO 3D drug screen, 96 h, CTG-3D normalised to day-0 seeding control.
HCI-002 = system: HCI-002 (organoid from a triple-negative breast cancer xenograft)
HCI-008 = system: HCI-008 (organoid from a HER2-enriched breast cancer xenograft)
HCI-017.E2 = system: HCI-017.E2 (organoid from an ER-positive breast cancer xenograft)
HCI-023 = system: HCI-023 (organoid from a triple-negative breast cancer xenograft)
HCI-024 = system: HCI-024 (organoid from a breast cancer xenograft)

NC(=O)Nc1cc(-c2cccc(F)c2)sc1C(=O)N[C@H]1CCCNC1 [AZD7762]
CTG-3D luminescence at 96 h
Conditions	12.5 pM	0.00025 µM	0.005 µM	0.1 µM	1 µM	10 µM	100 µM	625 fM
HCI-002, days in culture: 62	2.52	2.46	2.85	2.92	1.41	0.539	0.00339	3.08
HCI-002, days in culture: 82	2.71	3.02	2.27	2.44	1.47	0.623	0.00321	2.87
HCI-002, days in culture: 91	3.98	3.93	3.26	3.87	2.42	0.946	0.00426	4.19
HCI-002, days in culture: 191	2.47	2.51	2.36	2.27	2	0.525	0.00388	2.69
HCI-002, days in culture: 209	2.16	2.27	2.12	1.89	1.31	0.332	0.00089	2.27
HCI-002, days in culture: 227	5.71	5.98	5.18	5.24	2.21	0.595	-0.201	6.1
HCI-008, days in culture: 228	1.63	1.9	1.65	1.14	0.449	0.196	-0.128	1.86
HCI-008, days in culture: 244	1.39	1.87	2.45	1.66	0.881	0.413	0.00425	2.38
HCI-017.E2, days in culture: 85	2.53	3.05	2.76	2.37	1.67	1.26	0.0135	2.7
HCI-023, days in culture: 111	1.36	1.49	1.15	0.765	0.201	0.0705	-9.95e-05	1.52
HCI-023, days in culture: 128	1.552	1.6	1.32	0.581	0.161	0.133	0.000895	1.67
HCI-024, days in culture: 105	1.28	1.48	1.42	0.635	0.236	0.228	0.00249	1.9
HCI-024, days in culture: 122	1.65	2.38	1.93	0.853	0.308	0.273	0.00352	2.89
HCI-024, days in culture: 163	1.95	1.96	2.02	1.27	0.309	0.267	0.00535	2.34

HCI-017.E2
Conditions	CTG-3D luminescence at 96 h
12.5 pM	1.919
0.00025 µM	2
0.005 µM	2.23
0.1 µM	1.853
1 µM	1.22
10 µM	1.22
100 µM	0.00946
625 fM	2.25

O=C(/C=C/c1cccnc1)NCCCCC1CCN(C(=O)c2ccccc2)CC1 [FK866]
CTG-3D luminescence at 96 h
Conditions	12.5 pM	0.00025 µM	0.005 µM	0.1 µM	1 µM	10 µM	100 µM	625 fM
HCI-002, days in culture: 62	2.68	2.55	1.43	0.0472	0.0154	0.014	0.0284	3.07
HCI-002, days in culture: 82	2.77	3.14	0.508	0.0661	0.0553	0.0327	0.0409	3.06
HCI-002, days in culture: 91	3.92	3.63	1.55	0.0716	0.0287	0.025	0.0475	4.36
HCI-002, days in culture: 191	2.81	2.7	0.424	0.0805	0.0595	0.0599	0.0916	2.43
HCI-002, days in culture: 209	2.49	2.33	1.05	0.0589	0.0401	0.0272	0.062	2.4
HCI-002, days in culture: 227	5.05	5.39	3.02	0.104	0.0406	0.0434	0.0754	5.65
HCI-008, days in culture: 228	1.646	1.91	0.904	0.206	0.125	0.168	0.162	1.38
HCI-008, days in culture: 244	1.37	1.87	1.86	0.263	0.186	0.197	0.173	1.82
HCI-017.E2, days in culture: 85	2.98	3.2	2.28	0.984	0.928	0.889	0.391	2.15
HCI-023, days in culture: 111	1.12	1.65	0.244	0.0924	0.0716	0.0618	0.0864	1.25
HCI-023, days in culture: 128	1.73	1.55	0.315	0.153	0.103	0.135	0.123	1.8
HCI-024, days in culture: 105	1.87	1.72	0.265	0.2	0.157	0.205	0.272	2.1
HCI-024, days in culture: 122	2.43	2.32	0.648	0.179	0.209	0.222	0.172	2.91
HCI-024, days in culture: 163	1.91	2.21	0.305	0.221	0.181	0.166	0.306	1.89

HCI-017.E2
Conditions	CTG-3D luminescence at 96 h
12.5 pM	1.61
0.00025 µM	1.98
0.005 µM	0.93
0.1 µM	0.759
1 µM	0.847
10 µM	0.866
100 µM	0.328
625 fM	1.39

CCc1c2c(nc3ccc(O)cc13)-c1cc3c(c(=O)n1C2)COC(=O)[C@]3(O)CC [SN-38]
CTG-3D luminescence at 96 h
Conditions	12.5 pM	0.00025 µM	0.005 µM	0.1 µM	1 µM	10 µM	100 µM	625 fM
HCI-002, days in culture: 62	3.11	2.44	1.01	0.53	0.117	0.0334	0.0217	3.05
HCI-002, days in culture: 82	3.04	3.05	1.13	0.606	0.265	0.0317	0.0208	3.43
HCI-002, days in culture: 91	3.6	2.86	0.92	0.659	0.289	0.0365	0.0217	3.54
HCI-002, days in culture: 191	2.67	2.76	1.31	0.721	0.356	0.0269	0.0208	2.87
HCI-002, days in culture: 209	2.21	2.28	0.962	0.556	0.155	0.0238	0.0205	2.49
HCI-002, days in culture: 227	5.46	4.33	1.89	1.13	0.464	0.0608	0.038	5.49
HCI-008, days in culture: 228	1.72	1.6	0.948	0.349	0.21	0.132	0.111	1.93
HCI-008, days in culture: 244	1.28	1.83	1.31	0.575	0.202	0.12	0.119	2.23
HCI-017.E2, days in culture: 85	2.43	2.66	1.7	2.32	1.23	0.584	0.428	2.19
HCI-023, days in culture: 111	1.39	1.19	0.797	0.194	0.0332	0.0191	0.0103	1.53
HCI-023, days in culture: 128	2.09	1.68	0.754	0.391	0.0587	0.0307	0.0252	1.9
HCI-024, days in culture: 105	1.67	1.42	1.1	0.734	0.264	0.153	0.114	1.9
HCI-024, days in culture: 122	2.16	2.39	1.58	0.768	0.272	0.192	0.13	2.86
HCI-024, days in culture: 163	1.84	1.76	1.18	0.824	0.262	0.185	0.173	2.01

HCI-017.E2
Conditions	CTG-3D luminescence at 96 h
12.5 pM	1.58
0.00025 µM	1.73
0.005 µM	1.5
0.1 µM	1.44
1 µM	1.16
10 µM	0.47
100 µM	0.407
625 fM	1.77
